Results published in patent publication US20070259916A1, “mGluR5 modulators II” (AstraZeneca AB, priority 2006, published 2007).

What was measured:
[1] = target: T1, human mGluR5d (Homo sapiens, UniProt P41594); test: FLIPR assay, functional assessment of mGluR5 antagonism (intracellular calcium mobilization); assay type: cell-based; settings: cells expressing human mGluR5d; read-out: FLIPR hmGluR5d
T1 construct: expressed in transfected cells
Excerpt: Functional Assessment of mGluR5 Antagonism in Cell Lines Expressing mGluR5D
The properties of the compounds of the invention can be analyzed using standard assays for pharmacological activity. Examples of glutamate receptor assays are well known in the art as described in for example Aramori et al., Neuron 8:757 (1992), Tanabe et al., Neuron 8:169 (1992), Miller et al., J. Neuroscience 15: 6103 (1995), Balazs, et al., J. Neurochemistry 69:151 (1997). The methodology described in these publications is incorporated herein by reference. Conveniently, the compounds of the invention can be studied by means of an assay (FLIPR) that measures the mobilization of intracellular calcium, [Ca^2+] in cells expressing mGluR5 or another assay (IP3) that measures inositol phosphate turnover.
Cells expressing human mGluR5d as described in WO97/05252 are seeded at a density of 100,000 cells per well on collagen coated clear bottom 96-well plates with black sides and experiments are done 24 h following seeding. […] The fluorescence signal is sampled 50 times at 1 second intervals followed by 3 samples at 5 second intervals immediately after each of the two additions. Responses are measured as the difference between the peak height of the response to agonist, less the background fluorescence within the sample period. […]

[2] = Determination of brain to plasma ratio in rat; assay type: in vivo; settings: brain and plasma, female Sprague Dawley rats, drug in brain over drug in plasma, read-out: Brain/Plasma Ratio of compound in Rat
Protocol: Brain to plasma ratios are estimated in female Sprague Dawley rats. The compound is dissolved in water or another appropriate vehicle. For determination of brain to plasma ratio the compound is administrated as a subcutaneous, or an intravenous bolus injection, or an intravenous infusion, or an oral administration. At a predetermined time point after the administration a blood sample is taken with cardiac puncture. The rat is terminated by cutting the heart open, and the brain is immediately retained. The blood samples are collected in heparinized tubes and centrifuged within 30 minutes, in order to separate the plasma from the blood cells. The plasma is transferred to 96-well plates and stored at −20° C. until analysis. The brains are divided in half, and each half is placed in a pre-tarred tube and stored at −20° C. until analysis. Prior to the analysis, the brain samples are thawed and 3 ml/g brain tissue of distilled water is added to the tubes. The brain samples are sonicated in an ice bath until the samples are homogenized. Both brain and plasma samples are precipitated with acetonitrile. After centrifugation, the supernatant is diluted with 0.2% formic acid. […] After reconstitution of the residuals the samples are ready for injection onto the HPLC column.

T1 sequence (P41594 21-942 isoform P41594-3 limits assumed): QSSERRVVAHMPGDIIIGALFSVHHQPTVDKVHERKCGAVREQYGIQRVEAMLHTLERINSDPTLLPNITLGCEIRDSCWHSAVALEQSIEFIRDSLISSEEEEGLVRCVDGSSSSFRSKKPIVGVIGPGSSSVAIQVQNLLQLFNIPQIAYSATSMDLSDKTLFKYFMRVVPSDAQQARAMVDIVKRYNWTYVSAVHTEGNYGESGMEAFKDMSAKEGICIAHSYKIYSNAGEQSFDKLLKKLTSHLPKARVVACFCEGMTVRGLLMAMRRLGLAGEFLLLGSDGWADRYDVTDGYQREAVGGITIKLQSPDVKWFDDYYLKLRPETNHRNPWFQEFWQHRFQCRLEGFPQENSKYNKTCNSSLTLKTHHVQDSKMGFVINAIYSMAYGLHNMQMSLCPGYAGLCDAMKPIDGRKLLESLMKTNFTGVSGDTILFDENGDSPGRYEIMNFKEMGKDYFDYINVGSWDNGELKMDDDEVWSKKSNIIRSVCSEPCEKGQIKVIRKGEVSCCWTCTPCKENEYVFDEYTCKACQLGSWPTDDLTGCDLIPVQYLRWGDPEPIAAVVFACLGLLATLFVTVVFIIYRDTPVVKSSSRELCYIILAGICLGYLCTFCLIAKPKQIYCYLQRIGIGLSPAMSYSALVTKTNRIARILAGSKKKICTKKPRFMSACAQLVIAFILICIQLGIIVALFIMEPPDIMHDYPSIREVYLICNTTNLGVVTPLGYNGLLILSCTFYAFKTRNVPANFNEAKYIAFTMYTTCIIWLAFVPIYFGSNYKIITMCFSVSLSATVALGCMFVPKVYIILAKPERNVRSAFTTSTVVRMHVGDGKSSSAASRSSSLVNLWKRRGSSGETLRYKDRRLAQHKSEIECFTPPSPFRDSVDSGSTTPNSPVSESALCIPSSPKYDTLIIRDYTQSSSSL

COc1cc(-c2nnc(N3CCCCC3c3nnn(-c4cccc(C#N)c4)n3)n2C)ccn1 (stereo not shown) [Example 19.11, 3-(5-{1-[5-(2-Methoxy-pyridin-4-yl)-4-methyl-4H-[1,2,4]triazol-3-yl]-piperidin-2-yl}-tetrazol-2-yl)-benzonitrile]
IC50 [1]: 110 nM
Kp [2]: 0.06

Cn1c(-c2cccnc2)nnc1N1CCCC[C@H]1c1nnn(-c2cccc(Cl)c2)n1 [Example 20.2, 3-(5-{(S)-2-[2-(3-Chloro-phenyl)-2H-tetrazol-5-yl]-piperidin-1-yl}-4-methyl-4H-[1,2,4]triazol-3-yl)-pyridine]
IC50 [1]: 193 nM
Kp [2]: 0.085
